Data: patent publication US20240158446A1, “CYCLIC COMPOUND HAVING SELECTIVE INHIBITORY ACTION ON KRAS OVER HRAS AND NRAS” (CHUGAI SEIYAKU KABUSHIKI KAISHA, priority 2021, published 2024)

Experiments:
[1] = biological target: GDP-bound NRAS wild-type protein (Homo sapiens, UniProt P01111); assay: Binding to NRAS by surface plasmon resonance (SPR), Single Cycle Kinetics; conditions: SPR; GDP-bound NRAS wild-type protein vs GDP-bound KRAS wild-type protein; KD ratio class
[2] = biological target: GDP-bound KRAS wild-type protein (Homo sapiens, UniProt P01116); assay: Binding to KRAS by surface plasmon resonance (SPR), Single Cycle Kinetics; conditions: SPR, Single Cycle Kinetics, 1:1 binding model; GDP-bound KRAS wild-type protein; read-out: KRAS KD
Sequence of GDP-bound KRAS wild-type protein (P01116 whole entry): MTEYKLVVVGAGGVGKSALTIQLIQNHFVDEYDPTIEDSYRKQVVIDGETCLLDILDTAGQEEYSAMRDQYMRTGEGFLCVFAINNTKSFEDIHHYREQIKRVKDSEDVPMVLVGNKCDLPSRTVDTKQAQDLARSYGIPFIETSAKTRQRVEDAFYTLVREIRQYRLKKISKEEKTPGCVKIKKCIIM

[3] = biological target: GDP-bound HRAS wild-type protein (Homo sapiens, UniProt P01112); assay: Binding to HRAS by surface plasmon resonance (SPR), Single Cycle Kinetics; conditions: SPR; GDP-bound HRAS wild-type protein vs GDP-bound KRAS wild-type protein; KD ratio class
Sequence of GDP-bound HRAS wild-type protein (P01112 whole entry): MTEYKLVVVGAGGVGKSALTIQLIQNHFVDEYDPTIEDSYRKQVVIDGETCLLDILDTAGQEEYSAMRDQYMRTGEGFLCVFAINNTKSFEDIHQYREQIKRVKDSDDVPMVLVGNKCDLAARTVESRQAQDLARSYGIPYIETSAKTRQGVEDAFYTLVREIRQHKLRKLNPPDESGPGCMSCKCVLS

[4] = test system: human lung cancer strain NCI-H441;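 also: cell proliferation inhibition after four days measured by CellTiter-Glo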

Sequence of GDP-bound NRAS wild-type protein (P01111 whole entry): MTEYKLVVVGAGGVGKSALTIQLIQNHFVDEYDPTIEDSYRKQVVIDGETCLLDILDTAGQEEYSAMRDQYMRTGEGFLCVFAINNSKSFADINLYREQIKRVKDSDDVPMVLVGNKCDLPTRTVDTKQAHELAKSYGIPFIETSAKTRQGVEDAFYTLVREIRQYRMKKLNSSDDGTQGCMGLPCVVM

| Structure (SMILES) | NRAS/KRAS (ratio of KD value for NRAS to KD value for KRAS) [1] | Kd [2] | HRAS/KRAS (ratio of KD value for HRAS to KD value for KRAS) [3] | IC50 [4] |
| --- | --- | --- | --- | --- |
| CCO[C@@H]1C[C@H]2C(=O)NC3(CCC3)C(=O)N(C)[C@@H](C3CCCC3)C(=O)N(C)[C@H](C(=O)N3CCOCC3)CC(=O)N(C)[C@@H](CC(C)C)C(=O)N[C@@H]([C@@H](C)CC)C(=O)N(C)CC(=O)N(C)[C@H]3C/C=C\CCN(C3=O)[C@@H](Cc3ccc(C(F)(F)F)cc3)C(=O)N(C)CC(=O)N[C@@H](CCc3cc(F)c(C(F)(F)F)c(F)c3)C(=O)N2C1 [PP1282] | A (a compound having 10 or more and less than 20 is denoted as A) | 0.2 nM | A (a compound having 10 or more and less than 20 is denoted as A) | 12.3 nM |
| CCO[C@@H]1C[C@H]2C(=O)NC3(CCC3)C(=O)N(C)[C@@H](C3CCCC3)C(=O)N(C)[C@H](C(=O)N3CCOCC3)CC(=O)N(C)[C@@H](CC3CC3)C(=O)N[C@@H]([C@@H](C)CC)C(=O)N(C)CC(=O)N(C)[C@H]3C/C=C\CCN(C3=O)[C@@H](Cc3ccc(C(F)(F)F)cc3)C(=O)N(C)CC(=O)N[C@@H](CCc3cc(F)c(C(F)(F)F)c(F)c3)C(=O)N2C1 [PP1283] | AA (a compound having 20 or more is denoted as AA) | 0.2 nM | A (a compound having 10 or more and less than 20 is denoted as A) | 42.6 nM |
| CCO[C@@H]1C[C@H]2C(=O)NC3(CCC3)C(=O)N(C)[C@@H](C3CCCC3)C(=O)N(C)[C@H](C(=O)N3CCOCC3)CC(=O)N(C)[C@@H](C)C(=O)N[C@@H]([C@@H](C)CC)C(=O)N(C)CC(=O)N(C)[C@H]3C/C=C\CCN(C3=O)[C@@H](Cc3ccc(C(F)(F)F)cc3)C(=O)N(C)CC(=O)N[C@@H](CCc3cc(F)c(C(F)(F)F)c(F)c3)C(=O)N2C1 [PP1284] | AA (a compound having 20 or more is denoted as AA) | 0.12 nM | A (a compound having 10 or more and less than 20 is denoted as A) | 54.8 nM |
| CCO[C@@H]1C[C@H]2C(=O)NC3(CCC3)C(=O)N(C)[C@@H](C3CCCC3)C(=O)N(C)[C@H](C(=O)N3CCOCC3)CC(=O)N(C)[C@@H](CC(F)F)C(=O)N[C@@H]([C@@H](C)CC)C(=O)N(C)CC(=O)N(C)[C@H]3C/C=C\CCN(C3=O)[C@@H](Cc3ccc(C(F)(F)F)cc3)C(=O)N(C)CC(=O)N[C@@H](CCc3cc(F)c(C(F)(F)F)c(F)c3)C(=O)N2C1 [PP1285] | AA (a compound having 20 or more is denoted as AA) | 0.15 nM | A (a compound having 10 or more and less than 20 is denoted as A) | 24.6 nM |
| CCO[C@@H]1C[C@H]2C(=O)NC3(CCC3)C(=O)N(C)[C@@H](C(CC)CC)C(=O)N(C)[C@H](C(=O)N3CCOCC3)CC(=O)N(C)[C@@H](CC)C(=O)N[C@@H]([C@@H](C)CC)C(=O)N(C)CC(=O)N(C)[C@H]3C/C=C\CCN(C3=O)[C@@H](Cc3ccc(C(F)(F)F)cc3)C(=O)N(C)CC(=O)N[C@@H](CCc3cc(F)c(C(F)(F)F)c(F)c3)C(=O)N2C1 [PP1286] | AA (a compound having 20 or more is denoted as AA) | 0.65 nM | A (a compound having 10 or more and less than 20 is denoted as A) | 58.8 nM |
| CCO[C@@H]1C[C@H]2C(=O)NC3(CCC3)C(=O)N(C)[C@@H](C(CC)CC)C(=O)N(C)[C@H](C(=O)N3CCOCC3)CC(=O)N(C)[C@@H](CC(C)C)C(=O)N[C@@H]([C@@H](C)CC)C(=O)N(C)CC(=O)N(C)[C@H]3C/C=C\CCN(C3=O)[C@@H](Cc3ccc(C(F)(F)F)cc3)C(=O)N(C)CC(=O)N[C@@H](CCc3cc(F)c(C(F)(F)F)c(F)c3)C(=O)N2C1 [PP1287] | AA (a compound having 20 or more is denoted as AA) | 0.56 nM | A (a compound having 10 or more and less than 20 is denoted as A) | 49.7 nM |
